Reference: PMC5674027 (Scientific Reports, 2017)
pIC50, pKd: −log10 of the molar value.

Tests used:
breast cancer cells = details: cited from earlier work
claudin-1 [1] = assay type: cell-based, human; details: 100 µM, 24 h
occludin = assay type: cell-based, human; details: 100 µM, 24 h
Caco-2 cell monolayer = assay type: cell-based, human
Procedure: Caco-2 cells were allowed to differentiate for 10 to 14 days on Transwell filters (diameter, 6.5 mm; pore size, 0.4 µm; Corning, Corning, MA, USA) before their use in TER and paracellular flux assays. Caco-2 cell monolayers had TER values of 600–800 Ω•cm^2. TER values were measured by using a Millicell-ERS epithelial volt–ohm meter (Millipore Corporation, Billerica, MA, USA). For the paracellular tracer flux assay, 100 µM dialysed FD-4 was added to the medium in the upper chamber. After 1 h of incubation, the medium was collected from the bottom chamber, and the amount of FD-4 was measured with a TriStar LB 941 microplate reader (Berthold Technologies).

claudin-1 [2] = assay type: cell-based, human; details: n = 3
CLDN1 = assay type: cell-based, human; details: n = 3
melanoma cells = details: cited from earlier work
rat jejunum [3] = details: in vivo
[4] = test system: claudin-4 (HT1080/CLDN4 cells); assay type: cell-based
[5] = test system: claudin-3 (HT1080/CLDN3 cells); assay type: cell-based
C-CPE = assay type: binding, Clostridium perfringens
claudin-4 [6] = assay type: cell-based, human; details: 100 µM, 24 h
[7] = target: recombinant human claudin-4 protein (Homo sapiens, UniProt O14493); experiment: biochemical; assay type: binding
rat jejunum [8] = assay type: in vivo; details: n = 4
[9] = test system: various human cancer cell lines; details: cited from earlier work
claudin-4 [10] = assay type: cell-based, human; details: n = 3
claudin-3 = assay type: cell-based, human; details: n = 3
CLDN4 = assay type: cell-based, human; details: n = 3
ZO-1 = assay type: cell-based, human; details: 100 µM, 24 h
Caco-2 cells = assay type: cell-based, human; details: 1–100 µM, 24 h; n = 3
Procedure: For analysis of thiostrepton-induced cytotoxicity on Caco-2 cells, a lactate dehydrogenase (LDH) release assay was performed according to the manufacturer’s instructions. After being treated with thiostrepton for 24 h, the level of LDH released into the culture medium was analysed. Treatment with 0.2% Tween-20 was used as a 100% lysis control. Absorbance was measured at a wavelength of 570 nm by using a TriStar LB 941 microplate reader (Berthold Technologies).

CLDN3 = assay type: cell-based, human; details: n = 3
[11] = target: interaction between claudin-4 and C-CPE (Homo sapiens, UniProt O14493); experiment: biochemical; assay type: binding
Caco-2 cell monolayers = assay type: cell-based, human; details: 100 µM thiostrepton, apical sulfo-NHS-SS-biotin (606.7 Da) 10 min; Caco-2 monolayer
Procedure: Figure 5 Thiostrepton effect on paracellular tracer permeability. Caco-2 cell monolayers were treated with 100 µM thiostrepton or left untreated (control) and then apically incubated with sulfo-NHS-SS-biotin (606.7 Da; red) and counterstained with anti-ZO-1 antibody (green; TJ stain) and DAPI (blue; nuclear stain). […] Bar = 10 µm.
Localisation of claudins-1 and -4, occludin and ZO-1 on Caco-2 cells was assessed by immunofluorescence microscopy. Caco-2 cells were seeded on Transwell filters (diameter, 12 mm; pore size, 0.4 µm; Corning). After treatment with thiostrepton (100 µM) or no treatment for 24 h, the Caco-2 cells were fixed with methanol–acetone (1:1 v/v) for 5 min and then permeabilised with 0.2% Triton X-100 in PBS for 10 min. After non-specific binding had been blocked by incubation with 1% BSA in TBS buffer (20 mM Tris-HCl, pH 7.4, 40 mM NaCl) containing 0.05% Tween-20 (T-TBS) for 1 h, the cells were incubated with anti-claudin-1, -claudin-4, -occludin and -ZO-1 antibodies in 1% BSA in T-TBS for 1 h. After incubation of the cells with fluorescent secondary antibodies for 1 h, the immunofluorescence images were observed under an immunofluorescence microscope (Keyence, Tokyo, Japan). For visualisation of biotin passing through the TJ, Caco-2 cells treated with 100 µM thiostrepton or left untreated were apically labelled with sulfo-NHS-SS-biotin (606.7 Da) for 10 min. […]

Chain of interaction between claudin-4 and C-CPE (O14493 whole entry, looked up): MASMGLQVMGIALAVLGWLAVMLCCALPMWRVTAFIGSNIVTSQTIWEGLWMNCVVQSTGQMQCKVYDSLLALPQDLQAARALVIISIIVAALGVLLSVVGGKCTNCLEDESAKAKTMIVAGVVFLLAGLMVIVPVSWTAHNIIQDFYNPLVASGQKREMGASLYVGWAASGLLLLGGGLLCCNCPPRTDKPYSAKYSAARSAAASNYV
Chain of recombinant human claudin-4 protein (O14493 whole entry): as the sequence (O14493 whole entry, looked up) above

C=C(NC(=O)C(=C)NC(=O)c1csc(C2=N[C@@H]3c4csc(n4)[C@H]4NC(=O)c5csc(n5)[C@H]([C@](C)(O)[C@@H](C)O)NC(=O)[C@H]5CSC(=N5)/C(=C/C)NC(=O)[C@H]([C@@H](C)O)NC(=O)c5csc(n5)[C@]3(CC2)NC(=O)[C@H](C)NC(=O)C(=C)NC(=O)[C@H](C)NC(=O)[C@H]([C@@H](C)CC)N[C@@H]2C=Cc3c([C@H](C)O)cc(nc3[C@H]2O)C(=O)O[C@@H]4C)n1)C(N)=O [Thiostrepton]
effect on breast cancer cells (breast cancer cells): leads to cell-cycle arrest and cell death by down-regulating FOXM1 gene expression | cellular localisation of claudin-1 (claudin-1 [1]): did not alter the cellular localisation | cellular localisation of occludin (occludin): did not alter the cellular localisation | TER (%) (Caco-2 cell monolayer; 10 µM, 24 h, percentage of the TER value at 0 h): 55.2% | attenuation of barrier function of Caco-2 cells, comparison among hits (Caco-2 cell monolayer; among the hit compounds, Supplementary Figure 4, 10 µM, 24 h): greatest attenuation of the barrier function of Caco-2 cells | paracellular flux of FD-4 (Caco-2 cell monolayer; thiostrepton 1–100 µM, 24 h, Caco-2 apical to basal, 100 µM FD-4 1 h, fluorescence plate reader, n = 3): dose-dependent increase in the paracellular flux of FD-4 | effect on TER value of Caco-2 cells (Caco-2 cell monolayer; thiostrepton 1–100 µM, 12, 18, 24 h, then 24 h after medium change, n = 3): reversibly decreased the TER value of Caco-2 cells in a time- and dose-dependent manner | claudin-1 protein, 1% Triton-X-insoluble fraction (claudin-1 [2]): unchanged | claudin-1 protein, 1% Triton-X-soluble fraction (claudin-1 [2]): significantly decreased | claudin-1 mRNA level (CLDN1): significantly decreased | effect on melanoma cells (melanoma cells): suppresses cell growth and induces apoptosis | intestinal tissue toxicity (histochemical analysis) (rat jejunum [3]): no evidence of intestinal tissue toxicity | inhibition of C-CPE binding to claudin-4 on the cell membrane [4]: inhibited the binding of C-CPE to claudin-4 on the cell membrane | inhibition of C-CPE interaction with claudin-3 [5]: inhibited the interaction between C-CPE and claudin-3, but this effect was substantially weaker than that for claudin-4 | binding to C-CPE (C-CPE): did not bind to C-CPE | cellular localisation of claudin-4 (claudin-4 [6]): did not alter the cellular localisation | pKd [7]: 5.18 | maximum plasma FD-4 concentration (rat jejunum [8]): 0.6 µg/mL | rat jejunal absorption of FD-4 (rat jejunum [8]): enhanced rat jejunal absorption of FD-4 in a dose-dependent manner | anti-tumour activity [9]: shows anti-tumour activity in various human cancer cell lines | claudin-4 protein, 1% Triton-X-insoluble fraction (claudin-4 [10]): increased | claudin-4 protein, 1% Triton-X-soluble fraction (claudin-4 [10]): increased | claudin-3 protein, 1% Triton-X-insoluble fraction (claudin-3): unchanged | claudin-3 protein, 1% Triton-X-soluble fraction (claudin-3): significantly decreased | claudin-4 mRNA level (CLDN4): increased | cellular localisation of ZO-1 (ZO-1): did not alter the cellular localisation | cytotoxicity to Caco-2 cells (LDH release) (Caco-2 cells): not cytotoxic to Caco-2 cells in the concentration range of 1–100 µM | claudin-3 mRNA level (CLDN3): significantly decreased | pIC50 [11]: 5.99 | TR-FRET (% of control), inhibition of TR-FRET signal by interaction between claudin-4 and C-CPE [11]: 66.24 % of control | biotin permeation (Caco-2 cell monolayers): biotin signal was detected within the paracellular space
